Several values for one entry are separate records, joined by “and”; a condition that tells them apart may be missing. Equal values may be shown once. Entries after “also recorded” stand apart in the source; their conditions may differ.
What was measured:
[1] = biological target: T1, CREB-KID / CBP-KIX interaction (Homo sapiens, UniProt P16220); assay: Two-hybrid assay BD-CREB-KID / AD-CBP-KIX; type: cell-based; conditions: HEK293T, 10 μM, 8-h
T1 construct: CBP-KIX and CREB-KID domains as determined by two-hybrid assay; expressed in transfected cells; host or cells: HEK293T

[2] = Histological analysis of liver and adipose tissue; type: in vivo, mouse; conditions: DIO and db/db mice, 20 mg/kg, 5 weeks
Description: Fig. 5 APC improves hyperlipidemia of obese mice. DIO mice were continuously i.p. injected with control vehicle or APC with indicated doses (APC, 0, 10, and 20 mg/kg) or vehicle (Ctrl) one time daily for 5 weeks (n = 5–9). a Body-weight curves of these mice (left). Area under curve (AUC) analysis of curves is shown as a scatter chart at the right. […] Data are represented as mean ± SEM. *P < 0.05; **P < 0.01; P values were determined by one-way ANOVA followed Dunnett’s multiple comparisons test. The triglyceride (TG) contents in the serum (c) and liver (d) of these mice. The contents of (e) total cholesterol (TC), LDL cholesterol (LDL-C), and HDL cholesterol (HDL-C), (f) VLDL-C, and (g) nonesterified fatty acid (NEFA) in the serum of these mice. h The contents of hepatic NEFA and (i) glycerol in these mice, which were normalized by hepatic protein levels as determined by BCA assay. Data are represented as mean ± SEM (n = 5–6). *P < 0.05; **P < 0.01; P values were determined by one-way ANOVA followed Dunnett’s multiple comparisons test. j Histological analysis of liver and epididymis fat (WAT) from DIO mice treated with APC (20 mg/kg) or vehicle for 5 weeks. Tissues were stained with hematoxylin and eosin. Scale bars represent 100 μm. […]

[3] = test system: G6pc promoter (G6p-Luc); assay: G6p-Luc reporter in primary hepatocytes; type: cell-based, mouse; conditions: APC 10 μM, 8-h
[4] = biological target: CBP (Homo sapiens, UniProt Q92793); assay: Acetyltransferase activity of CBP (H3K27ac immunoblot, HEK293 cells); type: cell-based; conditions: for relative H3K27ac level: Fig 3d replicates, HA-CBP +, TSA-0.5uM +
Description: Fig. 3 APC inhibits CRTC2 interacting with CREB-ZIP and reduces acetyltransferase activity of CBP by binding with CREB protein directly. a Isothermal titration calorimetry (ITC) of HIS-CREB protein solution titrated into APC solution. The bottom solid line represents a nonlinear least-squares fitted by a single-site binding model. One of two independent experiments is shown here. b IC50 of APC inhibitory activity detected by CREB–CRTC2 two-hybrid assay in HEK293T cells (n = 3 per treatment, data are represented as mean ± SEM). One of three independent experiments is shown here. c Immunoprecipitation analysis of FLAG-CRTC2-WT recovered by anti-MYC antibody from HEK293 cells co-transfected with plasmids for a Myc-Creb-Zip fragment and the FLAG-Crtc2-Wt, stimulated by FSK (10 nM) for 2-h before harvest. APC (1–10 μM) was included in immunoprecipitation mixtures as indicated. Top represents one of three independent experiments, and the relative gray density of FLAG normalized to MYC in MYC-IP- factions is shown as a bar graph (bottom, n = 3). Data are represented as mean ± SEM; P values were determined by one-way ANOVA followed Dunnett’s multiple comparisons test. d Immunoblotting analysis of the acetyltransferase activity of CBP. The protein levels of H3K27ac and total Histone H3 were determined using specific antibodies from HEK293 cell lysate overexpressing HA-Cbp plasmid. […] The top represents one of three independent experiments, and the relative gray density of H3K27ac normalized to total Histone H3 in cell lysate is shown as a bar graph (bottom, n = 3). Data are represented as mean ± SEM; P values were determined by one-way ANOVA followed Dunnett’s multiple comparisons test. ns, P > 0.05; *P < 0.05; **P < 0.01. Sources data for this figure are provided as source data file.

Chain of CBP (Q92793 whole entry): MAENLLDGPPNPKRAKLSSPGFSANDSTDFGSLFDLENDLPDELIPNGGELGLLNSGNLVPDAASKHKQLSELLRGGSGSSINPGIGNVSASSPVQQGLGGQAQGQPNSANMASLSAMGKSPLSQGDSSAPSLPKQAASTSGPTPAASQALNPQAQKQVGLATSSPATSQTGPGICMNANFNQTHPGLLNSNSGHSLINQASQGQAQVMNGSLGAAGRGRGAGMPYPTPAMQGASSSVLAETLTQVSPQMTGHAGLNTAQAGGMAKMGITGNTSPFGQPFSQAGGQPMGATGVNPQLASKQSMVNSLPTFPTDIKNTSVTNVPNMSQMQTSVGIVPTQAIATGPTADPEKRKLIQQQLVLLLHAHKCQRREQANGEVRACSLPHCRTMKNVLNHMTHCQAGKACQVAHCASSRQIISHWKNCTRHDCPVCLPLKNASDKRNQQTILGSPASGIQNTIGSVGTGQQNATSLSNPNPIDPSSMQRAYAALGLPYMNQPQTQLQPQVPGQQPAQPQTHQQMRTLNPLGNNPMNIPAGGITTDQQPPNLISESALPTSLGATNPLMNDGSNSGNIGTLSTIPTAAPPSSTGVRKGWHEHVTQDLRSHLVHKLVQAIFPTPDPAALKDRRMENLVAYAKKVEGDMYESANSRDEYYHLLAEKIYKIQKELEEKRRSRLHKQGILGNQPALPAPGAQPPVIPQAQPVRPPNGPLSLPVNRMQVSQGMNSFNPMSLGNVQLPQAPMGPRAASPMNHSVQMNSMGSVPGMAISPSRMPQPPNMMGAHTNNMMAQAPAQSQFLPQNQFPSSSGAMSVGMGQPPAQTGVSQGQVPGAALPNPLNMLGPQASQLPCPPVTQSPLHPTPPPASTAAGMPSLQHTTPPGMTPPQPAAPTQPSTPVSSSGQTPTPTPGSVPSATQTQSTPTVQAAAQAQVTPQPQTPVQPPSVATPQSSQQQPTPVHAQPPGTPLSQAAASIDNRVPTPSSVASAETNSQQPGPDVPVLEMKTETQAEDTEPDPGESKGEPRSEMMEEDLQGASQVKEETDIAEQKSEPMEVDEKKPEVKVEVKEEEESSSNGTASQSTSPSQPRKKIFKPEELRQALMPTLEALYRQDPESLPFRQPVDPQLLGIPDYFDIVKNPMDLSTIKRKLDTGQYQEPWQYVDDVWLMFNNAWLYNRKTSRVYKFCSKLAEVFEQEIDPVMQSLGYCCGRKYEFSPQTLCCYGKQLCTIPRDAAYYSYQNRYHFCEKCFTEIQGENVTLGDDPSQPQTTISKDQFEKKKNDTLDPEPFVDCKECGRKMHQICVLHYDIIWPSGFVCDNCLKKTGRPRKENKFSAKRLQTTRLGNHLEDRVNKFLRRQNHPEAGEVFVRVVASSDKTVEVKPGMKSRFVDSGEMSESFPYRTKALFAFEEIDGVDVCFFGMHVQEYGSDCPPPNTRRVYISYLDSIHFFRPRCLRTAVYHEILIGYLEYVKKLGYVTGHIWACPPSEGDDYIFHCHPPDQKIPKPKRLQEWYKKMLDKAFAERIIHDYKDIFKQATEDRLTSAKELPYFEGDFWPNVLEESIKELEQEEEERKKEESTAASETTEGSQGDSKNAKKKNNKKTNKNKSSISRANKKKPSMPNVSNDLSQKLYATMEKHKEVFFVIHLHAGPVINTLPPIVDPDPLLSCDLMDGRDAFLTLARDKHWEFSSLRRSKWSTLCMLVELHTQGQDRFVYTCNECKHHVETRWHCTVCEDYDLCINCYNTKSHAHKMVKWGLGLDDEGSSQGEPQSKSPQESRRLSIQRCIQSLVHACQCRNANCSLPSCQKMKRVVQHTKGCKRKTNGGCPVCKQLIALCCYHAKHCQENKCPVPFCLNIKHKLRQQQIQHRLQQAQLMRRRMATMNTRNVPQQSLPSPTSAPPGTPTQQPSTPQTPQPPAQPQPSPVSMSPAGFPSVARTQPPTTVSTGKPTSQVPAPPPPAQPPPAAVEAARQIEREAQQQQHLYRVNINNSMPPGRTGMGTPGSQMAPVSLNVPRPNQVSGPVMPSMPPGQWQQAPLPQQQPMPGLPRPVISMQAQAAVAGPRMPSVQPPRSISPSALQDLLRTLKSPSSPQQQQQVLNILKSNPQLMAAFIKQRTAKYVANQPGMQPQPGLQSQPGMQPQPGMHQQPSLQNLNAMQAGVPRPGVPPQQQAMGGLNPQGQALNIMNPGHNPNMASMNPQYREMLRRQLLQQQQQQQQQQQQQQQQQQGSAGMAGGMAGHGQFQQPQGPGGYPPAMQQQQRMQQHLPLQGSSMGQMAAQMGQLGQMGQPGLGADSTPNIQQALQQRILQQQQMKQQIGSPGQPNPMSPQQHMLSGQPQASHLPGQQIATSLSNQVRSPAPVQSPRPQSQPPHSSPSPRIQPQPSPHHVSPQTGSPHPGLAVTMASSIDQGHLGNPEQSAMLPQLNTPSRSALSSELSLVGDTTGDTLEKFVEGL
T1 sequence (P16220 87-146 limits assumed): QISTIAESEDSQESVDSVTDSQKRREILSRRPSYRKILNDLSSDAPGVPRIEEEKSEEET

SMILES: CC(C)=CCc1cc(C=CC(=O)O)cc(CC=C(C)C)c1O [APC, 3,5-diprenyl-4-hydroxycinnamic acid]
- interaction of CBP-KIX and CREB-KID domains (two-hybrid) [1]: little effect; also recorded: neither APC nor A57 reduced
- sizes of lipid droplets in liver and adipose tissues [2]: remarkably reduced
- CRTC2-S171A induced G6p-luciferase activity [3]: reduced
- relative H3K27ac level ([4]; APC 2 uM): 1.193 and 1.187 and 1.293
- relative H3K27ac level ([4]; APC 5 uM): 0.5384 and 0.3648 and 0.6529
- acetylation level of H3K27ac induced by CBP ([4]; HEK293 cells overexpressing HA-Cbp): dose-dependently reduced

Source: article PMC8752738, “A propolis-derived small molecule ameliorates metabolic syndrome in obese mice by targeting the CREB/CRTC2 transcriptional complex” (Nature Communications, 2022)
